Blank lines part the entries; values can stand above or below the compound they belong to.
Experiments:
[1] = test system: Nrf2C (DNA, i motif) CCCTCCCGCCCTTGCTCCCTTCCC; assay: fluorescent indicator displacement; settings: 100 mM KCl, 10 mM sodium cacodylate pH 6.5, room temperature, thiazole orange displaced
[2] = test system: Nrf2G (DNA, G4) GGGAAGGGAGCAAGGGCGGGAGGG; assay: CD melting (264 nm); settings: 100 mM KCl, 10 mM sodium cacodylate pH 6.5, 50 µM ligand, 10 µM DNA
[3] = test system: DS (DNA, duplex) GGCATAGTGCGTGGGCGTTAGC/GCTAACGCCCACGCACTATGCC; assay: CD melting (253 nm); settings: 100 mM KCl; 10 mM sodium cacodylate pH 6.5; 50 µM ligand, 10 µM DNA
[4] = test system: Nrf2C (DNA, i motif) CCCTCCCGCCCTTGCTCCCTTCCC; assay: UV titration (ligand absorbance); settings: 100 mM KCl, 10 mM sodium cacodylate pH 6.5, DNA up to 50 µM
[5] = test system: Nrf2G (DNA, G4) GGGAAGGGAGCAAGGGCGGGAGGG; assay: UV titration (ligand absorbance); settings: 100 mM KCl, 10 mM sodium cacodylate pH 6.5, DNA up to 50 µM
[6] = test system: DS (DNA, duplex) GGCATAGTGCGTGGGCGTTAGC/GCTAACGCCCACGCACTATGCC; assay: UV titration (ligand absorbance); settings: 100 mM KCl, 10 mM sodium cacodylate pH 6.5, DNA up to 50 µM
[7] = test system: hTeloC (DNA, i motif) TAACCCTAACCCTAACCCTAACCC; assay: UV titration (ligand absorbance); settings: 100 mM KCl, 10 mM sodium cacodylate pH 6.5, DNA up to 50 µM
[8] = test system: hTeloG (DNA, G4) GGGTTAGGGTTAGGGTTAGGGTTA; assay: UV titration (ligand absorbance); settings: 100 mM KCl, 10 mM sodium cacodylate pH 6.5, DNA up to 50 µM
[9] = test system: DAPC (DNA, i motif) CCCCCGCCCCCGCCCCCGCCCCCGCCCCC; assay: UV titration (ligand absorbance); settings: 100 mM KCl, 10 mM sodium cacodylate pH 6.5, DNA up to 50 µM
[10] = test system: DAPG (DNA, G4) GGGGGCGGGGGCGGGGGCGGGGGCGGGGG; assay: UV titration (ligand absorbance); settings: 100 mM KCl, 10 mM sodium cacodylate pH 6.5, DNA up to 50 µM
[11] = test system: Nrf2C (DNA, i motif) CCCTCCCGCCCTTGCTCCCTTCCC; assay: CD melting (288 nm); settings: 100 mM KCl; 10 mM sodium cacodylate pH 6.5; 50 µM ligand, 10 µM DNA
[12] = 0.5 µM DNA (legend; methods 1 µM)

SMILES: C=Cc1cc(OC)c2c(c1)c(=O)oc1c2cc(OC)c2c(O)ccc(C3OC(C)C(O)C(C)(O)C3O)c21 (stereo not drawn)
DC50 [1, 12]: 6.3 ± 0.6 µM

SMILES: CCC(=O)c1ccc(O)c(O)c1
DC50 [1, 12]: 1.5 ± 0.1 µM

SMILES: COc1cc(-c2ccc(Nc3ccccc3C(=O)O)c(OC)c2)ccc1Nc1ccccc1C(=O)O
DC50 [1, 12]: 2.3 ± 0.1 µM

SMILES: COc1cccc2c1C(=O)c1c(O)c3c(c(O)c1C2=O)C[C@@](O)(C(C)=NO)C[C@@H]3O[C@H]1C[C@H](N)[C@H](O)[C@H](C)O1
DC50 [1, 12]: 4.9 ± 1.5 µM

SMILES: Cc1c2ccncc2c(C)c2c1[nH]c1ccccc12
DC50 [1, 12]: 3.9 ± 1.0 µM

SMILES: Nc1ccc(-c2nc3nc(N)nc(N)c3nc2-c2ccc(N)cc2)cc1
DC50 [1, 12]: 12 ± 3.4 µM

SMILES: O=C1c2cccc3cc([N+](=O)[O-])cc(c23)C(=O)N1CCN1CCCC1
ΔTm [11]: -1 ± 1.0 °C | ΔTm [2]: 9 ± 0.3 °C | ΔTm [3]: 9 ± 0.8 °C | Kd ([4]; ligand monitored at 335 nm): 20 ± 1.8 µM | Kd ([5]; ligand monitored at 335 nm): 6.6 ± 0.9 µM | Kd ([6]; ligand monitored at 335 nm): 2.4 ± 0.2 µM | Kd ([7]; ligand monitored at 335 nm): 10 ± 1.3 µM | Kd ([8]; ligand monitored at 335 nm): 6.2 ± 0.4 µM | Kd ([9]; ligand monitored at 335 nm): 6.0 ± 0.9 µM | Kd ([10]; ligand monitored at 335 nm): 8.2 ± 0.7 µM | DC50 [1, 12]: 13 ± 3.0 µM

The next lines start with the values.

DC50 [1, 12]: 16 ± 2.7 µM
SMILES: Cc1cc2nc3ccc(N(C)C)cc3[s+]c2cc1N

DC50 [1, 12]: 3.4 ± 0.5 µM
SMILES: Cc1ccc(NCCN(C)C)c2c(=O)c3cc(O)ccc3sc12

DC50 [1, 12]: 3.2 ± 0.1 µM
SMILES: Clc1c(Cl)c(Cl)c2[nH]nnc2c1Cl

ΔTm ([2]; error ± 0.3): 5 ± 1.0 °C | ΔTm [3]: 0 ± 0.7 °C | Kd ([4]; ligand monitored at 320 nm): 0.25 ± 0.1 µM | Kd ([5]; ligand monitored at 320 nm): 0.6 ± 0.1 µM | Kd ([6]; ligand monitored at 320 nm): 1.9 ± 0.1 µM | Kd ([7]; ligand monitored at 320 nm): 1.1 ± 0.2 µM | Kd ([8]; ligand monitored at 320 nm): 1.0 ± 0.1 µM | Kd ([9]; ligand monitored at 320 nm): 0.9 ± 0.1 µM | Kd ([10]; ligand monitored at 320 nm): 1.6 ± 0.2 µM | DC50 ([1]; poor ligand solubility): > 20 µM
SMILES: O=C(Nc1ccc(Nc2ccncc2)cc1)c1ccc(Nc2ccnc3ccc([N+](=O)[O-])cc23)cc1[N+](=O)[O-]

— article PMC11704350 (2025)
